# From patent publication US20220257741A1, “COMBINATION THERAPY FOR CANCER” (IO Biotech ApS, priority 2016, published 2022)
# Several values for one entry are separate records, joined by “and”; a condition that tells them apart may be missing. Identical values can stand only once. Entries after “also recorded” stand apart in the source; their conditions may differ.
# Legend:
# THP-1 cells = assay: 51Cr-release assay, PBMC killing of THP-1 (Example 4); type: cell-based; conditions: peptide 0.1 μM, day 17, range of E/T ratios
# Protocol: Buffycoats were thawed (day 0), washed twice, resuspended in medium, counted and plated into wells as set out in Table Z4. THP-1 cells were irradiated with 30 GY and washed twice in medium. THP-1 cells were counted and added to PBMC containing wells as set out in Table Z4 (total volume 2 ml). Plates were placed in an incubator at 37 degrees. On days 7 and 14, 1 ml supernatant/well was removed. Cells were harvested and analyzed for cytotoxic activity on day 17. A standard ^51Cr-release assay was used to measure the cytotoxic potential of the peptide treated PBMCs. ^51Cr labeled THP-1 cells were used as target cells and peptide treated PBMCs as effector cells. Triton-X treated wells was used as maximum measurable lysis and medium alone as minimum lysis.
# % Specific lysis=((cpmsample−cpmminimum)/(cpmmaximum−cpmminimum))×100%
# metastatic melanoma = conditions: phase III; cited from earlier work
# [1] = Phase I clinical trial, adverse events graded by CTCAE v. 4.0; type: in vivo, human
# From the text: Patients were enrolled in a First-in-Human phase I clinical trial at the Department of Oncology at Herlev Hospital, University of Copenhagen (Herlev, Denmark) from March 2014 to August 2014. The study was originally designed as a two-armed phase I study, combining IDO1-derived peptide vaccination with standard-of-care treatment with either Ipilimumab or Vemurafenib. Only data from patients treated with Ipilimumab in combination with vaccine is reported. […]
# Primary end-point was toxicity. In addition, immune-response against the vaccine peptide and the clinical benefit of treatment were assessed. […]
# Safety of the study treatment was assessed in terms of occurrence of adverse events, graded according to Common Terminology Criteria for Adverse Events (CTCAE) version 4.0. Anti-tumour activity was evaluated with positron emission tomography-computed tomography (PET-CT) scans obtained at baseline (up to 28 days before treatment initiation) after 12 weeks and every 8-12 weeks thereafter until progression. CT scans were evaluated according to Response Evaluation Criteria In Solid Tumors (RECIST) version 1.1. […]
# PBMC = assay: Direct IFN-γ ELISpot of patient PBMC stimulated with IO102 peptide; type: cell-based, human; conditions: patients treated with Ipilimumab without IDO-vaccine, before and after three series
# [2] = test system: Tregs and MDSC in peripheral blood; assay: Flow cytometry of regulatory cells in peripheral blood of patients; type: in vivo, human; conditions: patients treated with Ipilimumab without the vaccine (data not shown)
# Protocol: PBMC samples was thawed in 37° C. RPMI 1640 medium (Lonza) supplemented with 2.5 ml DNAse containing Pulmozyme (Roche) and 0.26 mmol MgCl (Herlev Hospital Pharmacy) per 100 ml buffer. All stainings were done in phosphate buffered saline (PBS)(Lonza) containing 0.5% bovine serum albumin (Sigma-Aldrich). The following antibodies were used: FoxP3-PE, HLA-DR-HV500, CD3-PE-Cy7, CD19-PE-Cy7, CD56-PE-Cy7, CD4-HV500, CD11b-APC, CD3-APC (purchased from BD Bioscience), CD33-FITC, CD124-PE (purchased from BD Pharmigen), HELIOS-PerCP-Cy5.5, CD14-BV421, CD25-BV421 (all purchased from Biolegend), CD127-FITC, CD39-PE-Cy7 (purchased from eBioscience). Additionally, all samples were stained with the LIVE/DEADR Fixable Near-IR Dead Cell Stain Kit (life technologies). For intracellular staining of transcription factors, we used the Foxp3/Transcription Factor Staining Buffer Set (eBioscience) according to the manufacturors instructions. Cells were acquired on a FACSCanto II using FACSDiva Software version 6.1.3 (BD Biosciences). Analysis of flow data was done using FlowJo software version 10 OSX (TreeStar, Inc., Ashland, Oreg.). Data-analysis was done after filtering of dead cells and doublets/triplets.
# Tregs were defined as CD3+CD4+CD25highCD127-FOXP3+.
# MDSC were defined as PBMC negative for lineage-markers CD3, CD19 and CD56 and additionally HLADR-/lowCD14+CD11b+CD33+CD124−.
# TC-1 tumour = TC-1 tumour model, peptide vaccination (Examples 7 and 8); type: in vivo, C57BL/6 mice
# Protocol: C57BL/6 mice harbouring TC-1 tumour were treated with TC-1 specific E7-peptide ([…]; SEQ ID NO: 35) or IDO-Pep1 ([…]; SEQ ID NO: 33) and the efficacy of the peptide vaccines was assessed by tumour burden and survival. The mouse IDO peptide sequence (IDO-Pep1) was selected to provide a murine analog for the human IDO peptides tested in the earlier Examples, because the sequence of murine IDO1 differs to that of human IDO1.
# 4-6 week-old C57BL/6 mice were injected with 70,000 cell/ mouse of TC-1 cells. Treatment in respective groups was started when tumour reached an average size of approximately 0.075 cm3 (approx. 10 days after tumour inoculation). Peptides used for vaccination included TC1-specific E7-peptide ([…]; SEQ ID NO: 35) and IDO-Pep1 ([…]; SEQ ID NO: 33). The mouse IDO peptide was designed based on MHC class I and II binding algorithm. […] Mice were vaccinated two-three times with one-week interval, and the efficacy of the peptide vaccines was assessed by measuring tumour volume and/or overall survival.
# C57BL/6 mice harbouring TC-1 tumour were treated with TC-1 specific E7-peptide ([…]; SEQ ID NO: 35), or IDO-Pep1 ([…]; SEQ ID NO: 33), or a combination of both E7 and IDO-Pep1. The efficacy of the vaccines was assessed by overall survival. […]
substance,measurement,setting,value
CILDSKLEVEALAQLLTFALK [IDO scrambled],Allogenic killing (lysis) of THP-1 cells by PBMCs,THP-1 cells,induced less lysis of THP-1 cells
Ipilimumab,Clinical benefit rate,metastatic melanoma,~30%
same,Overall response rate,metastatic melanoma,10.9%
same,"Toxicity, Ipilimumab","[1]; adverse reactions by CTCAE v. 4.0, one table line per patient (01i-13i), attributed by treating physician, Ipilimumab 3 mg/kg plus IO102 vaccine","Grade II choroiditis and None (3×) and Pruritus grade I, Grade I and diarrhoea, and Grade II rash, grade II and diarrhoea (2×) and Grade II rash and Grade II rosacea, grade III and Grade II pruritus and Grade I nausea"
same,Adverse reactions most likely related to Ipilimumab treatment,"[1]; individual patients, CTCAE grade",Two patients experienced grade II diarrhoea; also recorded: grade III diarrhoea; also recorded: two patients experienced grade II maculopapular rash; also recorded: flare in their pre-existing rosacea; also recorded: grade II choroiditis
same,"Induction of IDO-specific cells (IO102 reactivity, ELISpot)",PBMC,no induction of IDO-specific cells
same,Level of MDSC in peripheral blood,[2],no change in MDSC
same,Level of Tregs in peripheral blood,[2],Reduced levels of Tregs
MTYENMDIL (listed as Mus musculus) [IDO-Pep1],Anti-tumour effect (tumour volume and survival),"TC-1 tumour; 100 μg/mouse s.c. with PADRE and QuilA, therapeutic","anti-tumour protective effect; also recorded: greater protection than when vaccinated with tumour-specific peptide antigen, E7 peptide"
RAHYNIVTF (Fragment of the E7 oncoprotein of HPV) [E7 peptide],Protection (overall survival),TC-1 tumour; 100 μg/mouse of each peptide s.c. with PADRE and QuilA,has therapeutic efficacy
